Data reported in the NIST ThermoML archive (doi:10.1021/je050006+).

What was measured:
[1] = xn = mol fraction of the nth substance listed; conditions: 101.3 kPa, Liquid
[2] = excess molar enthalpy (molar enthalpy of mixing); xn = mol fraction of the nth substance listed; conditions: 101.3 kPa, Liquid

C=C1CCC2CC1C2(C)C (stereo not drawn) [β-pinene] + CCCO
Conditions	excess molar enthalpy [kcal/mol]	mass density [kg/m3]	speed of sound [m/s]
[1], 283.15 K, x1 = 0.0505	–	818.13	1265.6
[1], 283.15 K, x1 = 0.1024	–	824.2	1272.7
[1], 283.15 K, x1 = 0.2046	–	834.58	1285.3
[1], 283.15 K, x1 = 0.3046	–	843.01	1296
[1], 283.15 K, x1 = 0.405	–	850.35	1305.5
[1], 283.15 K, x1 = 0.5035	–	856.46	1313.7
[1], 283.15 K, x1 = 0.599	–	861.68	1321.2
[1], 283.15 K, x1 = 0.7026	–	866.65	1328.8
[1], 283.15 K, x1 = 0.8026	–	871.06	1336.3
[1], 283.15 K, x1 = 0.8834	–	874.33	1342.6
[1], 283.15 K, x1 = 0.9488	–	–	1348.5
[1], 283.15 K, x1 = 0.9489	–	876.85	–
[1], 283.15 K, x1 = 0.9812	–	878.27	1352.9
[1], 298.15 K, x1 = 0.053	–	806.47	1212.9
[1], 298.15 K, x1 = 0.1036	–	812.35	1219
[1], 298.15 K, x1 = 0.2039	–	822.4	1229.7
[1], 298.15 K, x1 = 0.3038	–	830.81	1239.1
[1], 298.15 K, x1 = 0.3966	–	837.49	1246.9
[1], 298.15 K, x1 = 0.5122	–	844.67	1255.7
[1], 298.15 K, x1 = 0.6005	–	849.44	1261.8
[1], 298.15 K, x1 = 0.699	–	854.2	1268.6
[1], 298.15 K, x1 = 0.793	–	–	1275.4
[1], 298.15 K, x1 = 0.7931	–	858.43	–
[1], 298.15 K, x1 = 0.8937	–	862.59	1283.3
[1], 298.15 K, x1 = 0.9426	–	864.54	1287.9
[1], 298.15 K, x1 = 0.9834	–	866.31	1293.6
[1], 313.15 K, x1 = 0.0514	–	794.24	1160.5
[1], 313.15 K, x1 = 0.1021	–	800.04	1165.7
[1], 313.15 K, x1 = 0.2032	–	810.14	1175
[1], 313.15 K, x1 = 0.307	–	818.69	1183.4
[1], 313.15 K, x1 = 0.405	–	825.65	1190.4
[1], 313.15 K, x1 = 0.5007	–	831.57	1196.5
[1], 313.15 K, x1 = 0.6004	–	837.06	1202
[1], 313.15 K, x1 = 0.7051	–	842.2	1206.4
[1], 313.15 K, x1 = 0.7928	–	846.14	1213.3
[1], 313.15 K, x1 = 0.8931	–	850.44	1222.1
[1], 313.15 K, x1 = 0.9407	–	852.42	1225.6
[1], 313.15 K, x1 = 0.9786	–	854.11	1228.9
[2], 283.15 K, x1 = 0.067	0.0146	–	–
[2], 283.15 K, x1 = 0.135	0.0304	–	–
[2], 283.15 K, x1 = 0.263	0.0564	–	–
[2], 283.15 K, x1 = 0.38	0.0755	–	–
[2], 283.15 K, x1 = 0.488	0.0891	–	–
[2], 283.15 K, x1 = 0.585	0.0963	–	–
[2], 283.15 K, x1 = 0.677	0.0994	–	–
[2], 283.15 K, x1 = 0.764	0.097	–	–
[2], 283.15 K, x1 = 0.855	0.086	–	–
[2], 283.15 K, x1 = 0.926	0.0674	–	–
[2], 283.15 K, x1 = 0.97	0.0473	–	–
[2], 298.15 K, x1 = 0.067	0.0213	–	–
[2], 298.15 K, x1 = 0.135	0.0423	–	–
[2], 298.15 K, x1 = 0.263	0.0803	–	–
[2], 298.15 K, x1 = 0.38	0.109	–	–
[2], 298.15 K, x1 = 0.488	0.129	–	–
[2], 298.15 K, x1 = 0.585	0.14	–	–
[2], 298.15 K, x1 = 0.677	0.147	–	–
[2], 298.15 K, x1 = 0.764	0.14	–	–
[2], 298.15 K, x1 = 0.855	0.127	–	–
[2], 298.15 K, x1 = 0.926	0.0978	–	–
[2], 298.15 K, x1 = 0.97	0.0626	–	–
[2], 313.15 K, x1 = 0.067	0.0277	–	–
[2], 313.15 K, x1 = 0.135	0.0581	–	–
[2], 313.15 K, x1 = 0.263	0.11	–	–
[2], 313.15 K, x1 = 0.38	0.15	–	–
[2], 313.15 K, x1 = 0.488	0.177	–	–
[2], 313.15 K, x1 = 0.585	0.192	–	–
[2], 313.15 K, x1 = 0.677	0.196	–	–
[2], 313.15 K, x1 = 0.764	0.188	–	–
[2], 313.15 K, x1 = 0.855	0.163	–	–
[2], 313.15 K, x1 = 0.926	0.124	–	–
[2], 313.15 K, x1 = 0.97	0.0791	–	–

C=C1CCC2CC1C2(C)C (stereo not drawn) [β-pinene] + CCO
Conditions	excess molar enthalpy, [2] [kcal/mol]	mass density, [1] [kg/m3]	speed of sound, [1] [m/s]
283.15 K, x1 = 0.0507	–	807.27	1209.5
283.15 K, x1 = 0.071	0.0261	–	–
283.15 K, x1 = 0.1012	–	815.62	1222.5
283.15 K, x1 = 0.142	0.0492	–	–
283.15 K, x1 = 0.2046	–	829.52	1246.3
283.15 K, x1 = 0.269	0.0798	–	–
283.15 K, x1 = 0.3015	–	839.85	1265.4
283.15 K, x1 = 0.394	0.0997	–	–
283.15 K, x1 = 0.4042	–	848.66	1282.4
283.15 K, x1 = 0.496	0.109	–	–
283.15 K, x1 = 0.5145	–	856.44	1298.8
283.15 K, x1 = 0.599	0.117	–	–
283.15 K, x1 = 0.6019	–	861.6	1309.4
283.15 K, x1 = 0.689	0.117	–	–
283.15 K, x1 = 0.6981	–	866.52	1320.5
283.15 K, x1 = 0.773	0.115	–	–
283.15 K, x1 = 0.7932	–	870.77	1330.4
283.15 K, x1 = 0.864	0.105	–	–
283.15 K, x1 = 0.8762	–	874.13	1339.3
283.15 K, x1 = 0.93	0.0844	–	–
283.15 K, x1 = 0.9355	–	876.41	1345.8
283.15 K, x1 = 0.964	0.0664	–	–
283.15 K, x1 = 0.9799	–	878.19	1353.4
298.15 K, x1 = 0.0502	–	794.53	1156.2
298.15 K, x1 = 0.071	0.0349	–	–
298.15 K, x1 = 0.1022	–	803.02	1168.9
298.15 K, x1 = 0.142	0.0645	–	–
298.15 K, x1 = 0.1999	–	816.23	1189.9
298.15 K, x1 = 0.269	0.104	–	–
298.15 K, x1 = 0.3045	–	827.43	1209
298.15 K, x1 = 0.394	0.129	–	–
298.15 K, x1 = 0.4019	–	835.85	1224.1
298.15 K, x1 = 0.496	0.14	–	–
298.15 K, x1 = 0.5	–	842.91	1237.4
298.15 K, x1 = 0.599	0.145	–	–
298.15 K, x1 = 0.6017	–	849.06	1249.8
298.15 K, x1 = 0.689	0.145	–	–
298.15 K, x1 = 0.6999	–	854.18	1260.6
298.15 K, x1 = 0.7626	–	857.17	1264.9
298.15 K, x1 = 0.773	0.139	–	–
298.15 K, x1 = 0.864	0.122	–	–
298.15 K, x1 = 0.89	–	862.45	1280.4
298.15 K, x1 = 0.93	0.0932	–	–
298.15 K, x1 = 0.9415	–	864.49	1286.3
298.15 K, x1 = 0.964	0.0777	–	–
298.15 K, x1 = 0.98	–	866.07	1294.5
313.15 K, x1 = 0.052	–	782.17	1104.8
313.15 K, x1 = 0.071	0.0433	–	–
313.15 K, x1 = 0.1041	–	790.76	1116.6
313.15 K, x1 = 0.142	0.0813	–	–
313.15 K, x1 = 0.2043	–	804.04	1135.7
313.15 K, x1 = 0.269	0.135	–	–
313.15 K, x1 = 0.3029	–	814.57	1151.7
313.15 K, x1 = 0.394	0.171	–	–
313.15 K, x1 = 0.4046	–	823.44	1167
313.15 K, x1 = 0.496	0.19	–	–
313.15 K, x1 = 0.4981	–	830.17	1178.5
313.15 K, x1 = 0.599	0.2	–	–
313.15 K, x1 = 0.6014	–	836.54	1189.8
313.15 K, x1 = 0.689	0.199	–	–
313.15 K, x1 = 0.6979	–	841.7	1198.7
313.15 K, x1 = 0.773	0.191	–	–
313.15 K, x1 = 0.809	–	846.76	1207
313.15 K, x1 = 0.864	0.167	–	–
313.15 K, x1 = 0.8844	–	850.12	1213.6
313.15 K, x1 = 0.93	0.137	–	–
313.15 K, x1 = 0.9356	–	852.26	1221.9
313.15 K, x1 = 0.964	0.0944	–	–
313.15 K, x1 = 0.985	–	854.6	1228.9
